The record followed here is patent US11225481B2 (Centre national de la recherche scientifique, priority 2015, dated 2022).

The target of assay [1] is T1, BRD4(BD1) (Homo sapiens, UniProt O60885).
T1 construct: a BRD4(BD1) synthetic gene that includes a TEV cleavage site was purchased from LifeTechnology; made in house
In words: HTRF assay, disruption of bromodomain/histone peptide interaction. The format is binding. On the procedure:
(§1) HTRF assays were performed in white 384 Well Small Volume™ HiBase Polystyrene Microplates (Greiner) with a total working volume of 20 μL. Compounds were dispensed, with 200 nL per well (1% final DMSO), from a concentration stock of 1 mM in 100% DMSO and with serial DMSO dilutions, using a Mosquito Crystal pipetting robot platform (TTP labtech). The IC50 measurements were performed in triplicates (Table 2 and 3). All HTRF reagents were purchased from CisBio Bioassays and reconstituted according to the supplier protocols. For each assay 14.7 μL of mix 1 (protein+peptide) is added in the assay wells, containing previously dispensed inhibitors, according to the final concentration and buffer described in Table 4, using a Biomek NX MC pipetting robot (Beckman). Then, 5.1 μL of mix 2 (donnor+acceptor) is added. HTRF signals were measured, after a final incubation (overnight at room temperature), using a PHERAstar FS (BMG Labtech) with an excitation filter at 337 nm and fluorescence wavelength measurement at 620 and 665 nm, an integration delay of 60 μs and an integration time of 500 μs. Results were analyzed with a two-wavelengths signal ratio: [intensity (665 nm)/intensity (620 nm)]*10^4. Percentage of inhibition was calculated using the following equation: % inhibition=[(compound signal)−(min signal)]/[(max signal)−(min signal)]*100, where ‘max signal’ is the signal ratio with the compound vehicle alone (DMSO) and ‘min signal’ the signal ratio without peptide.
(§2) For Isothermal Titration Calorimetry (ITC) and crystallogenesis, BRD4(BD1) was produced and purified using a histidine tag affinity chromatography as described by Filipakopoulos et al.9 For these experiments, a pNIC28-BSA4 expression vector containing BRD4(BD1) and a Tobacco Etch Virus (TEV) protease cleavage site have kindly been provided by Stefan Knapp laboratory from the SGC at the University of Oxford. After size exclusion chromatography, the fractions presenting pure BRD4(BD1) after TEV cleavage of the histidine tag were pooled and concentrated to 25 mg/mL for crystallogenesis. For ITC assays, the protein was concentrated up to at 6 mg/mL and the DTT was removed using a buffer exchange column (PD10 from GE healthcare) equilibrated with 10 mM HEPES pH=7.5, 150 mM NaCl. For Homogeneous Time Resolved Fluorimetry (HTRF) experiments, a BRD4(BD1) synthetic gene that includes a TEV cleavage site was purchased from LifeTechnology in a pDONR transport vector before cloning into a pDESTTM15 expression vector for GST affinity purification. Protein production and purification was carried out using similar protocols and buffers as used for the His-BRD4(BD1) system. Purification was carried on GST affinity resin (Thermo Scientific) and reduced glutathione was used for protein release. GST-BRD4(BD1) was further purified by size exclusion chromatography on a Superdex 16/60 Hiload column (GE Healthcare) using 20 mM TRIS pH=8.0, 150 mM NaCl Buffer.
Background: Time-resolved FRET reads energy transfer from a long-lived donor to a nearby acceptor.

A further assay has as its target T2, BRD2(BD1) (Homo sapiens, UniProt P25440).
T2 construct: purchased BPS Bioscience
Put plainly: HTRF bromodomain selectivity profile. Particulars: Table 3 selectivity profile. The format is binding. As to the method: as §1
(§3) Selectivity profiles of bromodomain inhibitors were performed as described in HTRF screen section. […] HTRF detection reagents (EPIgeneous™ Binding Domain kits) were purchased from Cisbio Bioassays and used according to supplier's protocol. GST tagged bromodomain proteins were purchased from BPS Bioscience and histone peptide from Anaspec.

In another assay the target is T3, BRD2(BD2) (Homo sapiens, UniProt P25440).
T3 construct: purchased BPS Bioscience
Put plainly: HTRF bromodomain selectivity profile. Type of assay: binding. The settings on record: Table 3 selectivity profile. As to the method:
as §1, §3

The target of another assay is T4, BRD4(BD2) (Homo sapiens, UniProt O60885).
T4 construct: purchased BPS Bioscience
Put plainly: HTRF bromodomain selectivity profile. Type of assay: binding. Particulars: Table 3 selectivity profile. As to the method:
as §1, §3

The next assay has as its target T5, BRDT(BD1) (Homo sapiens, UniProt Q58F21).
T5 construct: purchased BPS Bioscience
In words: HTRF bromodomain selectivity profile. The format is binding. Particulars: Table 3 selectivity profile. As to the method:
as §1, §3

The target in assay [2] is T1, BRD4(BD1). Put plainly: Isothermal Titration Calorimetry. The format is binding.
From the text: as §2
ITC was used to evaluate the thermodynamics parameters of the binding between BRD4(BD1) and the selected compounds, using ITC conditions previously described by Filippakopoulos et al.8 Purified BRD4(BD1) was extensively dialyzed in the ITC buffer containing 10 mM Hepes pH=7.5 and 150 mM NaCl. Compounds were diluted directly in the last protein dialysate prior to experiments. Titrations were carried out on a MicroCal ITC200 microcalorimeter (GE Healthcare, Piscataway, N.J.). Each experiment was designed using a titrant concentration (protein in the syringe) set 10 to 15 times the analyte concentration (compound in the cell generally between 10 and 35 μM) and using 13 injections at 35° C. A first small injection (generally 0.2 μL) was included in the titration protocol in order to remove air bubbles trapped in the syringe prior titration. Raw data were scaled after setting the zero to the titration saturation heat value. Integrated raw ITC data were fitted to a one site non-linear least squares fit model using the MicroCal Origin plugin as implemented in Origin 7 (Origin Lab). Finally, ΔG and TΔS values were calculated from the fitted ΔH and KA values using the equations ΔG=−R.T. ln KA and ΔG=ΔH−TΔS.

In a further assay the test system is c-Myc. Put plainly: Western blot of c-Myc in Jurkat cells. The settings on record: 24 h, same range of concentration as EC50. The format is cell-based, human. As to the method: Non-treated Jurkat cells and Jurkat cells treated during 24 h with compound of the invention 26b, or DMSO were lysed in RIPA lysis buffer (Tris HCl pH=7.5 50 mM, NaCl 150 mM, Triton 1%, SDS 0.1%, sodium deoxycholate 1%) supplemented with protease inhibitor cocktail (P8340, Sigma-Aldrich) and 1 mM PhenylMethylSulfonyl Fluoride (Sigma-Aldrich). 75 μg of protein were loaded onto 10% acrylamide SDS/PAGE and then transferred to nitrocellulose Hybond C-extra membranes, […] (GE Healthcare). The membranes were saturated with 5% (wt/vol) skim milk in TBST [Tris-buffered saline/0.1% (vol/vol) Tween 20] 1 h at room temperature and incubated with anti-myc antibody (clone 9E10, sc40 Santa Cruz) at a 1:500 dilution in 0.5% (wt/vol) skimmed milk in TBST overnight at 4° C. Membranes were then washed with TBST, incubated with an HRP-conjugated anti-mouse secondary antibody (polyclonal goat anti mouse P0447, Pierce) at a 1:20,000 dilution in TBST 1 h at room temperature. […] Quantification was performed using ImageJ software.
A general note: A western blot detects proteins with antibodies after separation by electrophoresis.

For a further assay, the system named is BET bromodomains. In words: Selectivity profile across BET bromodomains (HTRF). The format is binding. As to the method: as §3

Structures are written as SMILES. Read-outs that look alike come from different tables or passages of the source.

T3 sequence (P25440 344-453 limits assumed): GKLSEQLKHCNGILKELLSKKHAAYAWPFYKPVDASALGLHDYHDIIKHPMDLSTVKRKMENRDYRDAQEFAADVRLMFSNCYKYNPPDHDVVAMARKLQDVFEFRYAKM
T2 sequence (P25440 74-180 limits assumed): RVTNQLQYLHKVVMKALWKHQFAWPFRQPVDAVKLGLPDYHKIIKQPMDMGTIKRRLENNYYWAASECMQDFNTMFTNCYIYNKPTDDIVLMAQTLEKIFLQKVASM

For `CCCCc1c(C)nc2nc(SCc3nc4c(c(=O)[nH]c(=O)n4CCCC)n3CC)nn2c1C` [Compound 26b, 3-Butyl-8-(6-butyl-5,7-dimethyl-[1,2,4]triazolo[1,5-a]pyrimidin-2-ylsulfanylmethyl)-7-ethyl-3,7-dihydro-purine-2,6-dione], the IC50 at BRD4(BD1) [1] (HTRF, Table 1′, TABLE 2, read-out: BRD4(BD1) IC50) is 5 µM; on BRD4(BD1) [1] (HTRF, mean ± SD of three experiments, Table 2, read-out: IC50 μM, effect on BRD4(BD1) activity), 5 µM; on BRD4(BD1) [1] (Table 3 selectivity profile, mean ± SD of three experiments, read-out: IC50 (μM) BRD4(BD1)), 5 ± 0.1 µM; on BRD2(BD1), 59 ± 2.9 µM; against BRD2(BD2), above 100 µM; at BRD4(BD2) it was above 100 µM. On BRDT(BD1), this molecule showed an IC50 above 100 µM. The “LE (Ligand Efficiency)” value at BRD4(BD1) [1] (LE = 1.4(−log(IC50)/N), BRD4(BD1)) is on record as 0.22. In addition, the “IC50 (μM) BRD2(BD2)” value at BRD2(BD2) is “no detectable inhibition”. Moreover, at BRD4(BD2), the “IC50 (μM) BRD4(BD2)” value was “no detectable inhibition”. Also, the “entropy term −TΔS” value on BRD4(BD1) [2] (ITC, BRD4(BD1)) was -7.1 kcal/mol. Moreover, the Kd on BRD4(BD1) [2] (Isothermal Titration Calorimetry) was determined as 1.4 µM. In addition, in the assay on c-Myc, the c-Myc down regulation entry was “down regulated c-Myc”. The “fold lower IC50 towards BRD4(BD1) as compared to its relatives BD1” value in the assay on BET bromodomains (HTRF) turned out to be 10 fold. Moreover, the “selectivity profile among BET bromodomains” value in the assay on BET bromodomains (in words) is “selective towards BRD4(BD1)”.

What is called IC50 is the point on the concentration scale where inhibition reaches its midpoint. One may read the Kd as the constant that tells how readily two partners part at equilibrium. A high value points to lower affinity.
